According to patent publication US20210323976A1, “HETEROARYL COMPOUNDS FOR KINASE INHIBITION” (ARIAD Pharmaceuticals, Inc., priority 2015, published 2021):

Columns and labels:
Format in all cases: cell-based
[1] = target: T1, EGFR exon 20 ASV insertion (V769_D770insASV) (Homo sapiens, UniProt P00533, INS769ASV); assay: Ba/F3-EGFR-Exon20-ASV cell anti-proliferation assay (MTS, CellTiter 96 AQueous One); conditions: Ba/F3-EGFR-Exon20-ASV cells, 72 h, MTS signal
T1 construct: expressed in transfected cells; host or cells: Ba/F3 (murine pro-B) cells, lentiviral transduction with pLVX-IRES puro
T1 sequence (P00533 with tags, fused parts or gaps INS769ASV): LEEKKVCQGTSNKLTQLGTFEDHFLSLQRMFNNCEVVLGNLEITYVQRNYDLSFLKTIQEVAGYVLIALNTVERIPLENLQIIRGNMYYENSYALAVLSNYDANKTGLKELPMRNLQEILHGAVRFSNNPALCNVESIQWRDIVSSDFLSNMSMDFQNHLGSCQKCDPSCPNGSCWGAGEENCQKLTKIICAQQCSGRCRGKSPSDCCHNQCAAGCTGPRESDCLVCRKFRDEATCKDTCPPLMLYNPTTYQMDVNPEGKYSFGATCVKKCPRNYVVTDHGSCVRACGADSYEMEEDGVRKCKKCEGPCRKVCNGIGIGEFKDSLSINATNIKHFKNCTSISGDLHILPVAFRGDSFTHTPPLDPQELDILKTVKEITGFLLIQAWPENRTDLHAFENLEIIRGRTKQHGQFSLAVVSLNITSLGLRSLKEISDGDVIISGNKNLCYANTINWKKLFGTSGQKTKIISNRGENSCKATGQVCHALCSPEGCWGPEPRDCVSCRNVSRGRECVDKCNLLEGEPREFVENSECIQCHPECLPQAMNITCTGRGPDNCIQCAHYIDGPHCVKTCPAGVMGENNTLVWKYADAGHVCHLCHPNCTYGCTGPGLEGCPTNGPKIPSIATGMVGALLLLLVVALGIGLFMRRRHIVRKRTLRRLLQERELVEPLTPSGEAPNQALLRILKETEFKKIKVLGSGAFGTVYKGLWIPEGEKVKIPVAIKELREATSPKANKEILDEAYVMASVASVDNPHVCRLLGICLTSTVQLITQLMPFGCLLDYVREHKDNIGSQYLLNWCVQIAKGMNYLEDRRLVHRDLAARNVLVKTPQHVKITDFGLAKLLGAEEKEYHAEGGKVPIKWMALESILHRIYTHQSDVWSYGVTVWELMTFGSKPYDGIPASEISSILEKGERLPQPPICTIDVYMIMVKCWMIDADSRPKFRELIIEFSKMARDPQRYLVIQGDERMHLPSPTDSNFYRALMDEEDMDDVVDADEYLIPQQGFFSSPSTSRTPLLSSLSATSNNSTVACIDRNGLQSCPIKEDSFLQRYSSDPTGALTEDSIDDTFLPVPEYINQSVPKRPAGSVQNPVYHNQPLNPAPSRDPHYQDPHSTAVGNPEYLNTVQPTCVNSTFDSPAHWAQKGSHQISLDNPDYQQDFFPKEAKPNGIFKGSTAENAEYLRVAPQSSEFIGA
Excerpt: (§1) A compound's ability in selectively inhibiting EGFR exon 20 insertion mutations can be assessed using Ba/F3 cells, a murine pro-B cell line, which have been transduced with EGFR exon 20 insertions. An expression vector, pLVX-IRES puro (Clontech) coding for human EGFR exon 20 insertions NPG (H773_V774insNPG) or ASV (V769_D770insASV), was transfected into HEK293 cells by the Trans-Lentiviral ORF Packaging System (Thermo Scientific), to produce virus encoding EGFR exon 20 insertions. Ba/F3 (DSMZ) cells maintained in RPM11640 medium supplemented with 10% fetal bovine serum, 200 pM L-glutamine/200 µg/mL penicillin/200 µg/mL streptomycin (Life Technology) and 10 ng/mL IL-3 (R&D system), were infected by EGFR Exon20 virus and subsequently selected by puromycin (Life Technology) selection and IL-3 depletion. Ba/F3 cells expressing EGFR exon 20 insertions (named Ba/F3-EGFR-Exon20-NPG or Ba/F3-EGFR-Exon20-ASV) can proliferate in the absence of IL-3. The anti-proliferative activity of compounds were determined as follows: BaF3-EGFR-Exon20 cells (NPG or ASV) seeded in 96 well plates (2500 cells/well) were treated with test compound (dissolved in DMSO) at a series of concentrations (4-fold dilution, top concentration: 10,000 nM). The plates were incubated for 72 h in a 37° C. incubator with 5% CO2, and the number of viable cells in each well were measured indirectly by CellTiter 96® Aqueous One Solution Cell Proliferation Assay (Promega) This assay is a colorimetric method for determining the number of viable cells through measurement of their metabolic activity by detection of enzymatic conversion of tetrazolium salts into blue formazan derivatives. Reagent (20 pL) was added into each well, and the plates were returned to the incubator for 2 h. The absorbance in each well was then measured at 490 nm using an Envision plate reader (Perkin Elmer). IC50 values were calculated by determining the concentration of compound required to decrease the MTS signal by 50% comparing to the DMSO control in best-fit curves using Microsoft XLfit software or Accelrys Pipeline Pilot.

[2] = target: EGFR exon 20 NPG insertion (H773_V774insNPG) (Homo sapiens, UniProt P00533, cells depend on it, form not given); assay: Ba/F3-EGFR-Exon20-NPG cell anti-proliferation assay (MTS, CellTiter 96 AQueous One); conditions: 72 h, MTS signal
Sequence of EGFR exon 20 NPG insertion (H773_V774insNPG) (P00533 with tags, fused parts or gaps INS772GNP, form open): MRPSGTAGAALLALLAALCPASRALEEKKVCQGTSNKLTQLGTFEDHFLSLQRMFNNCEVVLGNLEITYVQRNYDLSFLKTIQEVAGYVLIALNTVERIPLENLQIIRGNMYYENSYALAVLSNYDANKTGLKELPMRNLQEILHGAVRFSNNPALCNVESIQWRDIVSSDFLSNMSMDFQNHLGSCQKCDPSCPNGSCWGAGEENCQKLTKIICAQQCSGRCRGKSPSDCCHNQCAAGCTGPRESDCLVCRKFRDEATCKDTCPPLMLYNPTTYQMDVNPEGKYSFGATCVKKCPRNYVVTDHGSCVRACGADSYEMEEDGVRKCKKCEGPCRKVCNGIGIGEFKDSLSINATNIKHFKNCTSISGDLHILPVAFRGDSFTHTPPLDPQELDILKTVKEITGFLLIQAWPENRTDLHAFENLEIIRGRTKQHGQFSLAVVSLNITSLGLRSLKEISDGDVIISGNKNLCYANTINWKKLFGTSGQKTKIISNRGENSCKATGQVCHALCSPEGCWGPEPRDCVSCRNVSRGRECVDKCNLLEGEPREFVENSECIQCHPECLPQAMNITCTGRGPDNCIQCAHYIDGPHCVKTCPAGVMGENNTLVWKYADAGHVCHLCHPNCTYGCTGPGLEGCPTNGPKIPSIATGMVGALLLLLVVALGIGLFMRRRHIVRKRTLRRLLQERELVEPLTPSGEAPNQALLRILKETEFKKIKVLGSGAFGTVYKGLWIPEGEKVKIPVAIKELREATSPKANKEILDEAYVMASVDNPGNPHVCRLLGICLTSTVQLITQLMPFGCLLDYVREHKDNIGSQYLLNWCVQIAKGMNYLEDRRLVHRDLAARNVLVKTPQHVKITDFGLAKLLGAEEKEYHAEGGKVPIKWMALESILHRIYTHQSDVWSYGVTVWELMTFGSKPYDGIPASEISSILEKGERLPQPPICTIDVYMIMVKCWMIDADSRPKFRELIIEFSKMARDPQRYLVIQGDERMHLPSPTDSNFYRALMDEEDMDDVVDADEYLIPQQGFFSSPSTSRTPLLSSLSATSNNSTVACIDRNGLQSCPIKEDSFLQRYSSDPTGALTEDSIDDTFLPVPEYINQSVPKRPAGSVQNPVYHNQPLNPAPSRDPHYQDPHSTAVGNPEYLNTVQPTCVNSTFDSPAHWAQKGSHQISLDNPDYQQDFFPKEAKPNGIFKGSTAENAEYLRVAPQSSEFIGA
Excerpt: as §1

[3] = target: T2, EGFR exon 19 deletion (E746-A750) and T790M mutation (Homo sapiens, UniProt P00533, DEL746-750/T790M); assay: Ba/F3-EGFR-Del/T790M cell anti-proliferation assay (MTS); conditions: Ba/F3-EGFR-Del/T790M cells, 72 h, MTS signal
T2 construct: expressed in transfected cells; host or cells: Ba/F3 (murine pro-B) cells, lentiviral transduction with pLVX-IRES puro
T2 sequence (P00533 with tags, fused parts or gaps DEL746-750/T790M): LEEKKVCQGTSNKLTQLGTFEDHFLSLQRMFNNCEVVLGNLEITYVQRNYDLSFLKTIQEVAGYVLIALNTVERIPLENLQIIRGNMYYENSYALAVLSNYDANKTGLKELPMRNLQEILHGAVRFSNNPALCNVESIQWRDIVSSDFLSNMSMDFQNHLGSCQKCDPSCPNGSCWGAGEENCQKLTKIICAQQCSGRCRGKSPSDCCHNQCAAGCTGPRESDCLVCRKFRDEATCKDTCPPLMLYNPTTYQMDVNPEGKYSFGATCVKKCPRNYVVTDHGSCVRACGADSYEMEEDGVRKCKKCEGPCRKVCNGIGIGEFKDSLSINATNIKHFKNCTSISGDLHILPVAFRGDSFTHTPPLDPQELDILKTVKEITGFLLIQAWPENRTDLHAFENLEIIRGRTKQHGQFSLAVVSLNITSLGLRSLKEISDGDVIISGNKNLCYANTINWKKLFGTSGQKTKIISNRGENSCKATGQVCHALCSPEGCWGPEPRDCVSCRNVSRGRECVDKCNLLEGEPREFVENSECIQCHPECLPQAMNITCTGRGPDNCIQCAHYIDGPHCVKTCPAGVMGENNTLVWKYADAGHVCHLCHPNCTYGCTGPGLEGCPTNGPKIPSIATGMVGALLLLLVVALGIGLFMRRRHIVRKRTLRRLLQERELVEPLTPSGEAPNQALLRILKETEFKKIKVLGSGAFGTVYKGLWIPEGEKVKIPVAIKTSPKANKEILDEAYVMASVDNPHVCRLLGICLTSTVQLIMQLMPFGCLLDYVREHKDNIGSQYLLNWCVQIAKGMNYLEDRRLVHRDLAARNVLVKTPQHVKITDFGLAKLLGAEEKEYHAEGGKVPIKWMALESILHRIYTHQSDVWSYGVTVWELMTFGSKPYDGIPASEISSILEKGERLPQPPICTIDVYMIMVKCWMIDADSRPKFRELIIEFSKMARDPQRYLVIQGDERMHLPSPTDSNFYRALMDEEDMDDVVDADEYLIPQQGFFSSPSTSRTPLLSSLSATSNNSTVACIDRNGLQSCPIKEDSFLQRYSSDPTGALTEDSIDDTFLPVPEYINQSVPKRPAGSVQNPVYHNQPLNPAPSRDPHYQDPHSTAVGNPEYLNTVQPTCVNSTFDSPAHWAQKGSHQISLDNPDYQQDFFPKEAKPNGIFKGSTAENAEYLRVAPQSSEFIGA
Excerpt: A compound's ability in selectively inhibiting EGFR exon 19 deletion and T790M concurrent mutations can be assessed using Ba/F3 cells, a murine pro-B cell line, which have been transduced with EGFR exon 19 deletion and T790M mutation. An expression vector, pLVX-IRES puro (Clontech) coding for human EGFR E746-A750 deletion and T790M Mutation, was transfected into HEK293 cells by the Trans-Lentiviral ORF Packaging System (Thermo Scientific), to produce virus encoding EGFR exon 19 deletion and T790M mutations. Ba/F3 (DSMZ) cells maintained in RPM11640 medium supplemented with 10% fetal bovine serum, 200 pM L-glutamine/200 μg/mL penicillin/200 μg/mL streptomycin (Life Technology) and 10 ng/mL IL-3 (R&D system), were infected by EGFR E746-A750 deletion and T790M Mutation virus and subsequently selected by puromycin (Life Technology) selection and IL-3 depletion. Ba/F3 cells expressing EGFR E746-A750 deletion and T790M Mutation (named Ba/F3-EGFR-Del/T790M) can proliferate in the absence of IL-3. The anti-proliferative activity of compounds was determined as follows: BaF3-EGFR-Del/T790M cells seeded in 96 well plates (2500 cells/well) were treated with test compound (dissolved in DMSO) at a series of concentrations (4-fold dilution, top concentration: 10,000 nM). The plates were incubated for 72 h in a 37° C. incubator with 5% CO2, and the number of viable cells in each well were measured indirectly by CellTiter 96® Aqueous One Solution Cell Proliferation Assay (Promega; this assay is a colorimetric method for determining the number of viable cells through measurement of their metabolic activity by detection of enzymatic conversion of tetrazolium salts into blue formazan derivatives). Reagent (20 pL) was added into each well, and the plates were returned to the incubator for 2 h. The absorbance in each well was then measured at 490 nm using an Envision plate reader (Perkin Elmer). IC50 values were calculated by determining the concentration of compound required to decrease the MTS signal by 50% comparing to the DMSO control in best-fit curves using Microsoft XLfit software or Accelrys Pipeline Pilot.

[4] = target: T3, Her2 exon 20 YVMA insertion (A775_G776ins YVMA) (Homo sapiens, UniProt P04626, INS775YVMA); assay: Ba/F3-Her2 Exon20 YVMA cell anti-proliferation assay (MTS); conditions: Ba/F3-Her2 Exon20 YVMA cells, 72 h, MTS signal
T3 construct: expressed in transfected cells; host or cells: Ba/F3 (murine pro-B) cells, lentiviral transduction with pLVX-IRES puro
T3 sequence (P04626 with tags, fused parts or gaps INS775YVMA): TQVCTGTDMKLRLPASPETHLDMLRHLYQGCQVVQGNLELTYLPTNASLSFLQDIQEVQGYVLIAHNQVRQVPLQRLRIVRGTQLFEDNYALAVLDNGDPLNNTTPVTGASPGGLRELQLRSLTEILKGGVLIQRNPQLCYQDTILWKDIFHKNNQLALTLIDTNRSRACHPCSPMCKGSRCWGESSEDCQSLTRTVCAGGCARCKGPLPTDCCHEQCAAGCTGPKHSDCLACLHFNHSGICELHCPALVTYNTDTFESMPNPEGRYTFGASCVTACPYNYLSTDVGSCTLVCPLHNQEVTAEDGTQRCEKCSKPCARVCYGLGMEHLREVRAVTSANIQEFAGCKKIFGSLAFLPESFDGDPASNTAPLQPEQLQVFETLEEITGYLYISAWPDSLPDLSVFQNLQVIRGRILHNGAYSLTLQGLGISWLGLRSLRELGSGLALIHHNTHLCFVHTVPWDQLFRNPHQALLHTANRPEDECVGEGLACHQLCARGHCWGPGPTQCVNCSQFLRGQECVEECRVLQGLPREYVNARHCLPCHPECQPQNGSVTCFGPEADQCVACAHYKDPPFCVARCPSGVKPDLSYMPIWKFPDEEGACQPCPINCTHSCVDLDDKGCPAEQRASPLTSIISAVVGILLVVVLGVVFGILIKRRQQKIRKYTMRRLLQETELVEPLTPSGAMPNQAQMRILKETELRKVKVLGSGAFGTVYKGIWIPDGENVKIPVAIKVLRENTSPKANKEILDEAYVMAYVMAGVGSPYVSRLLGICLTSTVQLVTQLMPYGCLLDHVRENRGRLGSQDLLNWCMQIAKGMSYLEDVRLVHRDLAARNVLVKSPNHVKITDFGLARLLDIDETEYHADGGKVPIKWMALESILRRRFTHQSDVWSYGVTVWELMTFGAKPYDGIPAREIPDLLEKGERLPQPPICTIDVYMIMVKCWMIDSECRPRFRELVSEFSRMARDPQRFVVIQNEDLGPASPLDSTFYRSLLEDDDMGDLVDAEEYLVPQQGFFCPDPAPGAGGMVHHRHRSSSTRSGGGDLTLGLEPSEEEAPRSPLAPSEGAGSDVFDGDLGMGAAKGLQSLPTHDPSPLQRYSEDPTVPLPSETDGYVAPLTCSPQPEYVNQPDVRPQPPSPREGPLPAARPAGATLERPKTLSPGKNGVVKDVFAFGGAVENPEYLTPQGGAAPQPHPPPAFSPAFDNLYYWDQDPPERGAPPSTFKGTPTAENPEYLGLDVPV
Excerpt: A compound's ability in selectively inhibiting Her2 exon 20 YVMA insertion mutations can be assessed using Ba/F3 cells, a murine pro-B cell line, which have been transduced with Her2 Exon20 YVMA insertions. An expression vector, pLVX-IRES puro (Clontech) coding for human EGFR exon 20 insertions YVMA (A775_G776ins YVMA), was transfected into HEK293 cells by the Trans-Lentiviral ORF Packaging System (Thermo Scientific), to produce virus encoding EGFR exon 20 insertions. Ba/F3 (DSMZ) cells maintained in RPM11640 medium supplemented with 10% fetal bovine serum, 200 pM L-glutamine/200 μg/mL penicillin/200 μg/mL streptomycin (Life Technology) and 10 ng/mL IL-3 (R&D system), were infected by EGFR Exon20 virus and subsequently selected by puromycin (Life Technology) selection and IL-3 depletion. Ba/F3 cells expressing Her2 Exon20 YVMA insertions (named Ba/F3-Her2 Exon20 YVMA) can proliferate in the absence of IL-3. The anti-proliferative activity of compounds was determined as follows: BaF3-Her2 Exon20 YVMA cells seeded in 96 well plates (2500 cells/well) were treated with test compound (dissolved in DMSO) at a series of concentrations (4-fold dilution, top concentration: 10,000 nM). The plates were incubated for 72 h in a 37° C. incubator with 5% CO2, and the number of viable cells in each well were measured indirectly by CellTiter 96® Aqueous One Solution Cell Proliferation Assay (Promega; this assay is a colorimetric method for determining the number of viable cells through measurement of their metabolic activity by detection of enzymatic conversion of tetrazolium salts into blue formazan derivatives). Reagent (20 pL) was added into each well, and the plates were returned to the incubator for 2 h. The absorbance in each well was then measured at 490 nm using an Envision plate reader (Perkin Elmer). IC50 values were calculated by determining the concentration of compound required to decrease the MTS signal by 50% comparing to the DMSO control in best-fit curves using Microsoft XLfit software or Accelrys Pipeline Pilot.

Row | IC50 [1] [nM] | IC50 [2] [nM] | IC50 [4] [nM] | SMILES | EGFR exon 19 deletion and T790M mutation IC50 [3]
1 | 100 to 500 | < 100 | 100 to 500 | C=CC(=O)Nc1cc(Nc2ncc(C#N)c(-c3c4n(c5ccccc35)CCOC4)n2)c(OC)cc1N(C)CCN(C)C [Example 8, N-(5-((5-cyano-4-(3,4-dihydro-1H-[1,4]oxazino[4,3-a]indol-10-yl)pyrimidin-2-yl)amino)-2-((2-(dimethylamino)ethyl)(methyl)amino)-4-methoxyphenyl)acrylamide] | A (Group A compounds have an IC50 value for the indicated mutant below about 100 nM)
2 | > 1000 | 500 to 1000 | > 1000 | C=CC(=O)Nc1cc(Nc2ncc(Cl)c(-c3c4n(c5ccccc35)CCOC4)n2)c(OC)cc1N(C)CCN(C)C [Example 9, N-(5-((5-chloro-4-(3,4-dihydro-1H-[1,4]oxazino[4,3-a]indol-10-yl)pyrimidin-2-yl)amino)-2-((2-(dimethylamino)ethyl)(methyl)amino)-4-methoxyphenyl)acrylamide] | A (Group A compounds have an IC50 value for the indicated mutant below about 100 nM)
